Values joined by “and” are separate entries in the source; they are usually repeats but may differ in a detail not shown here. Equal values may be shown once. “Also recorded” adds a separate entry of the source.
What was measured:
[1] = In-life observations: body weight, gross findings before and at necropsy; type: in vivo, Male Fischer 344/N rats; settings: individual animals
Description: Doses were determined with pilot experiments. […] Serum was collected for clinical chemistry.

liver = experiment: Liver histopathology (H&E sections of left liver lobe, severity graded) after a single dose; settings: rat, single administration
Description: The animals were acclimated for 14 days and observed for absence of disease.
Doses were determined with pilot experiments. For each chemical, doses that elicited a sub-toxic ('low'), a moderately toxic ('medium') or a overtly toxic ('high') response 24 hours after treatment were selected. […] For each compound, control animal groups were treated with vehicle alone. All animals were fasted for 12-18 hours prior to exposure. Groups of four to six animals were dosed between 8:30 and 9:30 a.m.; thereafter, feed was provided ad libitum. After 6, 24 or 48 hours of treatment, animals were anesthetized by isoflurane anesthesia. Whole blood was collected via retro-orbital plexus for hematology and gene expression analysis. Serum was collected for clinical chemistry. The animals were euthanized while under anesthesia by cervical dislocation and necropsied within 4 minutes of sacrifice. The left liver lobe was promptly removed and two defined cross sections were placed in 10% neutral buffered formalin for subsequent histopathology.
The cross sections that were fixed by immersion in 10% neutral buffered formalin (see 'In-life studies' section above) were transferred to histology grade alcohol for 18-24 hours after necropsy. Tissues were then processed, embedded in paraffin, sectioned at 5 microns, and stained with hematoxylin and eosin. A pathologist completed the initial microscopic evaluation of each liver sample for a given compound. […] An independent pathology quality assessment review was performed by a second pathologist on the initial histopathological findings.

[2] = Gavage, corn oil, 10 mg/kg, 6 hours
[3] = Gavage, corn oil, 10 mg/kg, 24 hours
[4] = Gavage, corn oil, 10 mg/kg, 48 hours
[5] = Gavage, corn oil, 30 mg/kg, 24 hours
[6] = Gavage, corn oil, 50 mg/kg, 6 hours
[7] = Gavage, corn oil, 50 mg/kg, 24 hours
[8] = Gavage, corn oil, 50 mg/kg, 48 hours
[9] = Gavage, corn oil, 300 mg/kg, 6 hours
[10] = 25 mg/kg, gavage, corn oil, 6 hours
[11] = 25 mg/kg, gavage, corn oil, 24 hours
[12] = 25 mg/kg, gavage, corn oil, 48 hours
[13] = 75 mg/kg, Gavage, Corn Oil, 48 hours
[14] = 75 mg/kg, gavage, corn oil, 6 hours
[15] = 75 mg/kg, gavage, corn oil, 24 hours
[16] = 250 mg/kg, Gavage, Corn Oil, 48 hours
[17] = 250 mg/kg, gavage, corn oil, 6 hours
[18] = 250 mg/kg, gavage, corn oil, 24 hours

C[C@H]1C(=O)O[C@@H]2CCN3CC=C(COC(=O)[C@](C)(O)[C@]1(C)O)[C@H]23 [Monocrotaline]
Clin/Ob Prior to Necropsy [1, 2]: normal | Gross Findings [1, 2]: No Gross Findings | Clin/Ob Prior to Necropsy [1, 3]: normal | Final Body Wt. [1, 3]: 224.70 g and 231.10 g and 243.30 g and 240.90 g | Gross Findings [1, 3]: No Gross Findings; also recorded: Liver - Herniated diaphragmatic nodule | Clin/Ob Prior to Necropsy [1, 4]: normal | Final Body Wt. [1, 4]: 241.60 g and 239.40 g and 266.80 g and 243.40 g | Gross Findings [1, 4]: Liver median lobe dark area 1x1x1 mm; also recorded: Liver median lobe red area 2x2x2 mm; also recorded: No Gross Findings; also recorded: Liver median lobe right side with red area 2x1x1 mm | Clin/Ob Prior to Necropsy [1, 5]: Piloerection | Final Body Wt. [1, 5]: 224.70 g and 224.00 g and 229.60 g and 222.60 g | Gross Findings [1, 5]: Liver left lobe dark and mottled with rough surface, median lobe dark and mottled; also recorded: Liver left and median lobes dark; also recorded: Liver left lobe dark and mottled, median lobe dark; kidney dark | Clin/Ob Prior to Necropsy [1, 6]: normal | Gross Findings [1, 6]: No Gross Findings | Clin/Ob Prior to Necropsy [1, 7]: normal | Final Body Wt. [1, 7]: 223.50 g and 226.80 g and 245.00 g and 241.70 g | Gross Findings [1, 7]: Liver left lobe mottled, median lobe mottled with minimal roughening of surface; also recorded: No Gross Findings; also recorded: Liver median lobe with dark area 2x2x2 mm | Clin/Ob Prior to Necropsy [1, 8]: normal | Final Body Wt. [1, 8]: 231.90 g and 232.10 g and 240.80 g and 232.90 g | Gross Findings [1, 8]: Liver left lobe with red area 10x2x2 mm, median lobe dark and mottled; also recorded: Liver left lobe firm, median lobe left side, ventral surface dark, dorsal surface with red area 2x2x2 mm, right side mottled and firm; also recorded: Liver median lobe right and left side with dark lower edges, dorsal surface mottled; also recorded: Liver median lobe with dark edges, right side dark and mottled, dorsal surface dark and mottled with mild roughening of surface | Clin/Ob Prior to Necropsy [1, 9]: normal | Gross Findings [1, 9]: No Gross Findings; also recorded: Liver, median lobe tan; also recorded: Liver, left lobe mottled, median lobe dark on edges, patchy 2x2x3 mm; also recorded: Liver left and median lobes mottled | Primary site of livery injury (liver): Centrilobular

Brc1ccccc1 [Bromobenzene]
Clin/Ob Prior to Necropsy [1, 10]: Normal | Gross Findings [1, 10]: No Gross Findings | Clin/Ob Prior to Necropsy [1, 11]: Normal | Final Body Wt. [1, 11]: 249.50 g and 261.40 g and 229.00 g and 231.60 g | Gross Findings [1, 11]: No Gross Findings | Clin/Ob Prior to Necropsy [1, 12]: Normal | Final Body Wt. [1, 12]: 244.40 g and 235.00 g and 246.60 g and 231.60 g | Gross Findings [1, 12]: No Gross Findings | Clin/Ob Prior to Necropsy [1, 13]: Normal | Final Body Wt. [1, 13]: 236.60 g and 225.70 g and 236.40 g and 237.30 g | Gross Findings [1, 13]: No Gross Findings | Clin/Ob Prior to Necropsy [1, 14]: Normal | Gross Findings [1, 14]: No Gross Findings; also recorded: Liver left lobe mottled | Clin/Ob Prior to Necropsy [1, 15]: Normal | Final Body Wt. [1, 15]: 242.50 g and 258.00 g and 249.00 g and 228.00 g | Gross Findings [1, 15]: No Gross Findings | Clin/Ob Prior to Necropsy [1, 16]: Normal | Final Body Wt. [1, 16]: 203.70 g and 220.50 g and 212.60 g and 210.30 g | Gross Findings [1, 16]: Liver left lobe firm with mottled edges, median lobe firm with mottled edges; also recorded: Liver left lobe mild roughening of surface, median lobe mild roughening of surface | Clin/Ob Prior to Necropsy [1, 17]: Normal | Gross Findings [1, 17]: No Gross Findings; also recorded: Liver left lobe and median lobe mottled | Clin/Ob Prior to Necropsy [1, 18]: Ungroomed Appearance | Final Body Wt. [1, 18]: 214.60 g and 204.50 g and 218.70 g and 200.70 g | Gross Findings [1, 18]: Liver left lobe dark, mottled, and firm (anterior end darker), median lobe dark, mottled, and firm; also recorded: Liver left lobe mottled with dark edges, median lobe dark and mottled (left side darker) | Primary site of livery injury (liver): Centrilobular

— article PMC2481421, “Gene expression response in target organ and whole blood varies as a function of target organ injury phenotype” (Genome Biology, 2008)
